Patent US20210255193A1, “LYSINE REACTIVE PROBES AND USES THEREOF” (The Scripps Research Institute, priority 2017, published 2021)

Key:
Assay in all cases: competitive isoTOP-ABPP
Format in all cases: binding
EEF2 Elongation factor 2 = target: T1, EEF2 Elongation factor 2 (Homo sapiens, UniProt P13639); conditions: for R value (DMSO/fragment) for probe 1 labeling / isoTOP-ABPP reactivity ratio at lysine P13639_K235 / isoTOP-ABPP reactivity ratio at lysine P13639_K318 / isoTOP-ABPP ratio (R) at liganded lysine P13639_K235 / isoTOP-ABPP ratio (R) at liganded lysine P13639_K318: 50 uM, in vitro; for R value (DMSO/fragment) for probe 1 labeling / isoTOP-ABPP reactivity ratio at lysine P13639_K235 / isoTOP-ABPP reactivity ratio at lysine P13639_K318: 231 sol; for isoTOP-ABPP ratio (R) at liganded lysine P13639_K235 / isoTOP-ABPP ratio (R) at liganded lysine P13639_K318: sol, 231; for isoTOP-ABPP ratio, lysine P13639_K235 / isoTOP-ABPP ratio, lysine P13639_K318: 50 uM_231_sol_in vitro
T1 construct: isoTOP-ABPP experiments performed in cell lysates (in vitro); endogenous in cells; host or cells: soluble proteome of human cancer cell lines (MDA-MB-231; Ramos and Jurkat also prepared)
In short: (§1)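 Probe: STP-alkyne, 0.1 mM, 1 h RT, after fragment pretreatment of lysate (esters 50 μM; guanidinylators 100 μM). Tags: light = compound, heavy = DMSO, via CuAAC. Replicates averaged if SD <60% of mean; otherwise lowest ratio used when any R <4.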

[1] = target: T2, MRPS24 28S ribosomal protein S24, mitochondrial (Homo sapiens, UniProt Q96EL2); conditions: for isoTOP-ABPP ratio (R) at liganded lysine Q96EL2_K94: sol, 231; for isoTOP-ABPP ratio, lysine Q96EL2_K94: 50 uM_231_sol_in vitro
T2 construct: isoTOP-ABPP experiments performed in cell lysates (in vitro); endogenous in cells; host or cells: soluble proteome of human cancer cell lines (MDA-MB-231; Ramos and Jurkat also prepared)
In short: as §1

[2] = target: T3, TPD52L2 Tumor protein D54 (Homo sapiens, UniProt O43399); set-up: key to isoTOP-ABPP reactivity ratio at lysine O43399_K90: R = MS1 peak area ratio, DMSO (heavy) / compound-treated (light); conditions: for isoTOP-ABPP ratio (R) at liganded lysine O43399_K90: sol, 231; for isoTOP-ABPP ratio, lysine O43399_K90: 50 uM_231_sol_in vitro
T3 construct: isoTOP-ABPP experiments performed in cell lysates (in vitro); endogenous in cells; host or cells: MDA-MB-231 soluble lysate
Method: (§2) In vitro covalent fragment treatment for isoTOP-ABPP. All compounds were made up as solutions in DMSO (100×) and were used at a final concentration of 50 μM for activated esters and 100 μM for guanidinylating agents. For each profiling sample, 0.5 ml of lysate was treated with 5 μl of the 100× compound stock solution or 5 μl of DMSO. Samples were treated with activated esters for
(§3) STP-alkyne labeling and click chemistry. For concentration-dependent reactivity measurements by isoTOP-ABPP, 0.5 ml proteome aliquots were treated at ambient temperature with 1 mM STP-alkyne 1 (5 μl of 100 mM stock in DMSO) and 0.1 mM STP alkyne 1 (5 μl of 10 mM stock in DMSO), respectively. For competitive isoTOP-ABPP, after in vitro fragment treatment (detailed above), the samples were labeled for 1 h at ambient temperature with 0.1 mM STP-alkyne 1 (5 μl of 10 mM stock in DMSO). Samples were conjugated by copper-mediated azide-alkyne cycloaddition (CuAAC) to either the light (1 mM STP-alkyne or fragment treated) or heavy (0.1 mM STP-alkyne or DMSO treated) TEV tags (10 μl of 5 mM stocks in DMSO, final concentration=100 μM) using tris(2-carboxyethyl)phosphine hydrochloride
(§4) R value calculation and processing. The ratios of light and heavy MS1 peaks for each unique peptide were quantified with a CIMAGE software using default parameters (3 MS1 acquisitions per peak and signal to noise threshold set to 2.5). For reactivity measurements by isoTOP-ABPP, the R value was calculated from the ratio of MS1 peak areas, comparing the 1 mM STP alkyne sample (light TEV tag) with the 0.1 mM STP alkyne sample (heavy TEV tag). For competitive isoTOP-ABPP, the R value was calculated from the ratio of MS1 peak areas, comparing the DMSO treated sample (heavy TEV tag) with the compound treated sample (light TEV tag). […] Ratios for unique peptide entries are calculated for each experiment; overlapping peptides with the same modified lysine (for example, different charge states, MudPIT chromatographic steps or tryptic termini) are grouped together and the median ratio is reported as the final ratio (R). The peptide ratios reported by CIMAGE were further filtered to ensure the removal or correction of low-quality ratios in each individual data set. The quality filters applied were the following: removal of half tryptic peptides; for ratios with high standard deviations from the median (90% of the median or above) the lowest ratio was taken instead of the median; removal of peptides with R=20 and only a single MS2 event triggered during the elution of the parent ion; manual annotation of all the peptides with ratios of 20, removing any peptides with low quality elution profiles that remained after the previous curation steps (only done for competitive isoTOP-ABPP).
(§5) Cross-data processing for fragment screening. For compound treated samples, biological replicates of the same condition were averaged, if the standard deviation was below 60% of the mean; otherwise, for lysines with at least one R value <4 for a particular compound, the lowest value of the ratio set was taken. For lysines, where all R values for a particular compound were ≥4, the average was reported. For peptides containing several possible modified lysines, the lysine with the highest number of quantification events was used for analysis and the remaining, redundant peptides were reported as alternative modification sites. Peptides included in the aggregate dataset (those used for further bioinformatics and statistical analyses) were required to have been quantified in 2 experiments for competitive isoTOP-ABPP. Lysines were categorized as liganded, if they had at least one ratio R≥4 (hit fragments). For liganded lysines with R=20 for all liganding events, lysines were required to have been quantified with R=20 in two separate experiments and were further required to have been quantified with R<20 in one additional experiment.

[3] = target: T4, PSME3 Proteasome activator complex subunit 3 (Homo sapiens, UniProt P61289); set-up: key to isoTOP-ABPP reactivity ratio at lysine P61289_K237: R = MS1 peak area ratio, DMSO (heavy) / compound-treated (light); key to isoTOP-ABPP reactivity ratio at lysine P61289_K12: R = MS1 peak area ratio, DMSO (heavy) / compound-treated (light); capped at 20; conditions: for isoTOP-ABPP ratio (R) at liganded lysine P61289_K12 / isoTOP-ABPP ratio (R) at liganded lysine P61289_K237: sol, 231; for isoTOP-ABPP ratio, lysine P61289_K12 / isoTOP-ABPP ratio, lysine P61289_K237: 50 uM_231_sol_in vitro
T4 construct: isoTOP-ABPP experiments performed in cell lysates (in vitro); endogenous in cells; host or cells: soluble proteome of human cancer cell lines (MDA-MB-231, Ramos, Jurkat)
Method: as §2, §3, §4, §5

[4] = target: T5, FECH Ferrochelatase, mitochondrial (Homo sapiens, UniProt P22830); conditions: for isoTOP-ABPP ratio, lysine P22830_K304: 50 uM_231_sol_in vitro
T5 construct: isoTOP-ABPP experiments performed in cell lysates (in vitro); endogenous in cells; host or cells: soluble proteome of human cancer cell lines (MDA-MB-231; Ramos and Jurkat also prepared)
T5 sequence (P22830 55-423): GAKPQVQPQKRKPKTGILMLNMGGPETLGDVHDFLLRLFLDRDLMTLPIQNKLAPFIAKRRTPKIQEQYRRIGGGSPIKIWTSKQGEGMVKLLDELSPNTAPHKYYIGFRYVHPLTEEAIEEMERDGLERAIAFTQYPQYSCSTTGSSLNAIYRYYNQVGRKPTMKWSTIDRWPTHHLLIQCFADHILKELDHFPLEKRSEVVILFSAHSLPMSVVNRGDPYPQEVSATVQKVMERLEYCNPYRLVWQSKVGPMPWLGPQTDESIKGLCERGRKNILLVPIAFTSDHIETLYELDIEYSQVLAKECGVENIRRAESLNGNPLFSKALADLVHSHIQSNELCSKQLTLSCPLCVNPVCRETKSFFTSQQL
In short: as §1

T3 sequence (O43399 whole entry): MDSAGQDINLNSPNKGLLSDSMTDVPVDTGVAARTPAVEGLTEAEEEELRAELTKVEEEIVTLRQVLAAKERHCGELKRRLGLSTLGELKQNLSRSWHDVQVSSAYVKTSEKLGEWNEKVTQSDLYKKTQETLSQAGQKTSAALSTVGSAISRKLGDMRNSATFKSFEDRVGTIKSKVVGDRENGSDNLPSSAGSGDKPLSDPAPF
T4 sequence (P61289 whole entry, one chain of several): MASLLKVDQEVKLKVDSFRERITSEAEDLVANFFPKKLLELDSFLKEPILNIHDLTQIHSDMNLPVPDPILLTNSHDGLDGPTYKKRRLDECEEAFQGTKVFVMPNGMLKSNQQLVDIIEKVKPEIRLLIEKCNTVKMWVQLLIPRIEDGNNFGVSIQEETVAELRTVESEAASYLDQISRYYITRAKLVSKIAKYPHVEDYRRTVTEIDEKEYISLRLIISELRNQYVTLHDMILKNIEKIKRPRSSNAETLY

Row | SMILES | isoTOP-ABPP ratio (R) at liganded lysine P13639_K235 (EEF2 Elongation factor 2) | isoTOP-ABPP ratio (R) at liganded lysine Q96EL2_K94 ([1]; 50 uM, in vitro) | isoTOP-ABPP ratio (R) at liganded lysine O43399_K90 ([2]; 50 uM, in vitro) | isoTOP-ABPP ratio (R) at liganded lysine P61289_K12 ([3]; 50 uM, in vitro) | isoTOP-ABPP ratio (R) at liganded lysine P13639_K318 (EEF2 Elongation factor 2) | isoTOP-ABPP ratio (R) at liganded lysine P61289_K237 ([3]; 50 uM, in vitro) | isoTOP-ABPP ratio, lysine P13639_K235 (EEF2 Elongation factor 2) | isoTOP-ABPP ratio, lysine P13639_K318 (EEF2 Elongation factor 2) | isoTOP-ABPP ratio, lysine P22830_K304 [4] | isoTOP-ABPP ratio, lysine O43399_K90 [2] | other results
1 | COc1cc(CCC(=O)Oc2c(F)c(F)c(F)c(F)c2F)cc(OC)c1OC [fragment 23, Pentafluorophenyl 3-(3,4,5-trimethoxyphenyl)propanoate] | – | – | – | – | – | – | – | – | – | – | R value (DMSO/fragment) for probe 1 labeling (EEF2 Elongation factor 2; P13639_K235): 1.6; R value (DMSO/fragment) for probe 1 labeling (EEF2 Elongation factor 2; P13639_K318): 1.6; R value (DMSO/fragment) for probe 1 labeling ([1]; Q96EL2_K94, 50 uM, 231 sol, in vitro): 2.1; R value (DMSO/fragment) for probe 1 labeling ([2]; O43399_K90, 50 uM, 231 sol, in vitro): 1.5; R value (DMSO/fragment) for probe 1 labeling ([3]; P61289_K237, 50 uM, 231 sol, in vitro): 0.5
2 | O=C(Oc1ccc([N+](=O)[O-])cc1[N+](=O)[O-])C(c1ccccc1)c1ccccc1 [fragment 30, 2,4-Dinitrophenyl 2,2-diphenylacetate] | – | – | – | – | – | – | – | – | – | – | isoTOP-ABPP reactivity ratio at lysine P13639_K235 (EEF2 Elongation factor 2): 1.4; isoTOP-ABPP reactivity ratio at lysine P13639_K318 (EEF2 Elongation factor 2): 1.4; isoTOP-ABPP reactivity ratio at lysine O43399_K90 ([2]; 50 uM, 231 sol, in vitro): 5.5; isoTOP-ABPP reactivity ratio at lysine P61289_K237 ([3]; 50 uM, 231 sol, in vitro): 4.3
3 | Cn1cc(CC(=O)Oc2ccc([N+](=O)[O-])cc2[N+](=O)[O-])c2ccccc21 [fragment 32, 2,4-Dinitrophenyl 2-(1-methyl-1H-indol-3-yl)acetate] | – | – | – | – | – | – | – | – | – | – | isoTOP-ABPP reactivity ratio at lysine P13639_K235 (EEF2 Elongation factor 2): 1.4; isoTOP-ABPP reactivity ratio at lysine P13639_K318 (EEF2 Elongation factor 2): 1.5; isoTOP-ABPP reactivity ratio at lysine Q96EL2_K94 ([1]; 50 uM, 231 sol, in vitro): 5.1; isoTOP-ABPP reactivity ratio at lysine O43399_K90 ([2]; 50 uM, 231 sol, in vitro): 2.7; isoTOP-ABPP reactivity ratio at lysine P61289_K12 ([3]; 50 uM, 231 sol, in vitro): 4.7; isoTOP-ABPP reactivity ratio at lysine P61289_K237 ([3]; 50 uM, 231 sol, in vitro): 5.1
4 | O=C(Oc1ccc([N+](=O)[O-])cc1[N+](=O)[O-])C1CCN(C(=O)OCc2ccccc2)CC1 [fragment 34, 1-Benzyl 4-(2,4-dinitrophenyl) piperidine-1,4-dicarboxylate] | 1.0 | 1.4 | 1.8 | 1.4 | – | – | – | – | – | – | –
5 | O=C(Oc1ccc([N+](=O)[O-])cc1[N+](=O)[O-])c1ccc2ccccc2n1 [fragment 35, 2,4-Dinitrophenyl quinoline-2-carboxylate] | 1.1 | 1.3 | 1.3 | 0.7 | 1.1 | 0.8 | – | – | – | – | –
6 | O=C(Oc1ccc([N+](=O)[O-])cc1[N+](=O)[O-])c1ccc(-c2ccccc2)cc1 [fragment 37, 2,4-Dinitrophenyl [1,1′-biphenyl]-4-carboxylate] | 1.0 | 0.9 | 1.6 | 0.9 | 1.0 | 1.0 | – | – | – | – | –
7 | O=C(Oc1ccc([N+](=O)[O-])cc1[N+](=O)[O-])c1ccccc1Nc1cccc(C(F)(F)F)c1 [fragment 40, 2,4-Dinitrophenyl 2-((3-(trifluoromethyl)phenyl)amino)benzoate] | 0.9 | – | 1.2 | 0.8 | 0.9 | 0.7 | – | – | – | – | –
8 | CC(C)(C)OC(=O)NCCCC(=O)Oc1ccc([N+](=O)[O-])cc1[N+](=O)[O-] [fragment 41, 2,4-Dinitrophenyl 4-((tert-butoxycarbonyl)amino)butanoate] | 1.0 | 1.3 | 1.3 | 3.5 | 1.1 | 2.2 | – | – | – | – | –
9 | CC(=O)Oc1ccc([N+](=O)[O-])cc1[N+](=O)[O-] [fragment 43, 2,4-Dinitrophenyl acetate] | 1.1 | 1.1 | 1.1 | – | 1.2 | – | – | – | – | – | isoTOP-ABPP ratio (R) at liganded lysine P22830_K304 ([4]; 50 uM, in vitro, sol, 231): 1.3
10 | N#Cc1ccc(C(=O)Oc2ccc([N+](=O)[O-])cc2[N+](=O)[O-])cc1 [fragment 44, 2,4-Dinitrophenyl 4-cyanobenzoate] | – | – | – | – | – | – | 1.0 | 1.1 | 1.1 | 1.1 | isoTOP-ABPP ratio, lysine Q96EL2_K94 [1]: 1.1
11 | O=C(CCc1ccc2c(c1)OCO2)Oc1ccc([N+](=O)[O-])cc1[N+](=O)[O-] [fragment 45, 2,4-Dinitrophenyl 3-(benzo[d][1,3]dioxol-5-yl)propanoate] | – | – | – | – | – | – | 1.0 | 1.0 | 1.4 | 1.5 | isoTOP-ABPP ratio, lysine P61289_K12 [3]: 2.0; isoTOP-ABPP ratio, lysine P61289_K237 [3]: 1.6
12 | O=C(Oc1c(F)c(F)c(C(F)(F)F)c(F)c1F)c1cc(C(F)(F)F)cc(C(F)(F)F)c1 [fragment 47, 2,3,5,6-Tetrafluoro-4-(trifluoromethyl)phenyl 3,5-bis(trifluoromethyl)benzoate] | – | – | – | – | – | – | 1.1 | 1.1 | 2.2 | 2.0 | isoTOP-ABPP ratio, lysine P61289_K12 [3]: 1.1; isoTOP-ABPP ratio, lysine P61289_K237 [3]: 0.9
13 | O=C(Oc1c(F)c(F)cc(F)c1F)c1cc(C(F)(F)F)cc(C(F)(F)F)c1 [fragment 48, 2,3,5,6-Tetrafluorophenyl 3,5-bis(trifluoromethyl)benzoate] | – | – | – | – | – | – | 1.2 | 1.1 | 1.1 | 1.8 | isoTOP-ABPP ratio, lysine Q96EL2_K94 [1]: 1.0
